Assay results from patent US9738634B2, “Heterocyclic amide compound and herbicide” (SYNGENTA PARTICIPATIONS AG, priority 2013, dated 2017).

How the values were obtained:
Assay type in all cases: in vivo
Conditions in all cases: treatment dosage 320 g/ha
barnyard grass [1] = experiment: Test Example 1: weedkilling efficacy, preemergent weed treatment in the submerged state; A: barnyard grass
Method in brief: (§1)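 Pre-emergence application onto floodwater (4 cm, alluvial soil) on the day of sowing, dose expressed as g/ha from diluted emulsion formulation. Weeds sown with 2.5-leaf transplanted rice as crop; plants held at 25–30 °C in greenhouse and scored against assessment criteria after 3 weeks.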

bulrush [2] = experiment: Test Example 1: weedkilling efficacy, preemergent weed treatment in the submerged state; B: bulrush
Method in brief: as §1

oval-leafed pondweed [3] = experiment: Test Example 1: weedkilling efficacy, preemergent weed treatment in the submerged state; C: oval-leafed pondweed
Method in brief: as §1

transplanted rice = experiment: Test Example 1: preemergent weed treatment in the submerged state, effect on crop; a: transplanted rice
Method in brief: as §1

barnyard grass [4] = experiment: Test Example 2: weedkilling efficacy, growth period weed treatment in the submerged state; A: barnyard grass
Method in brief: (§2)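 Weeds treated at the 1-2 leaf stage by application of diluted emulsion onto floodwater (4 cm depth, alluvial soil) at specified g/ha. Grown in greenhouse at 25 to 30° C; herbicidal effect rated three weeks after treatment.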

bulrush [5] = experiment: Test Example 2: weedkilling efficacy, growth period weed treatment in the submerged state; B: bulrush
Method in brief: as §2

oval-leafed pondweed [6] = experiment: Test Example 2: weedkilling efficacy, growth period weed treatment in the submerged state; C: oval-leafed pondweed
Method in brief: as §2

crabgrass [7] = experiment: Test Example 3: weedkilling efficacy through soil treatment; D: crabgrass
Method in brief: (§3)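 Crop and weed responses were judged three weeks after a uniform surface spray of the water-diluted emulsion at the given g/ha rate. Seeds sat beneath about 1.5 cm of sterilized diluvial soil, and boxes stood in a greenhouse at 25 to 30° C.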

green foxtail [8] = experiment: Test Example 3: weedkilling efficacy through soil treatment; E: green foxtail
Method in brief: as §3

barnyard grass [9] = experiment: Test Example 3: weedkilling efficacy through soil treatment; F: barnyard grass
Method in brief: as §3

wild oat [10] = experiment: Test Example 3: weedkilling efficacy through soil treatment; G: wild oat
Method in brief: as §3

black-grass [11] = experiment: Test Example 3: weedkilling efficacy through soil treatment; H: black-grass
Method in brief: as §3

Italian ryegrass [12] = experiment: Test Example 3: weedkilling efficacy through soil treatment; I: Italian ryegrass
Method in brief: as §3

common wind-grass [13] = experiment: Test Example 3: weedkilling efficacy through soil treatment; J: common wind-grass
Method in brief: as §3

Indian mallow [14] = experiment: Test Example 3: weedkilling efficacy through soil treatment; K: Indian mallow
Method in brief: as §3

redroot pigweed [15] = experiment: Test Example 3: weedkilling efficacy through soil treatment; L: redroot pigweed
Method in brief: as §3

fig-leafed goosefoot [16] = experiment: Test Example 3: weedkilling efficacy through soil treatment; M: fig-leafed goosefoot
Method in brief: as §3

chickweed [17] = experiment: Test Example 3: weedkilling efficacy through soil treatment; N: chickweed
Method in brief: as §3

directly sown rice [18] = experiment: Test Example 3: soil treatment, effect on crop; b: directly sown rice
Method in brief: as §3

corn [19] = experiment: Test Example 3: soil treatment, effect on crop; c: corn
Method in brief: as §3

soybean [20] = experiment: Test Example 3: soil treatment, effect on crop; d: soybean
Method in brief: as §3

wheat [21] = experiment: Test Example 3: soil treatment, effect on crop; e: wheat
Method in brief: as §3

rapeseed [22] = experiment: Test Example 3: soil treatment, effect on crop; g: rapeseed
Method in brief: as §3

crabgrass [23] = experiment: Test Example 4: weedkilling efficacy by foliar treatment; D: crabgrass
Method in brief: (§4)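 Seeds are spot-sown into sterilized diluvial soil and covered with about 1.5 cm of soil. After 14 days' greenhouse growth at 25 to 30° C, plants are sprayed on stems and leaves with diluted emulsion at the stated g/ha rate, then scored at 3 weeks.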

green foxtail [24] = experiment: Test Example 4: weedkilling efficacy by foliar treatment; E: green foxtail
Method in brief: as §4

barnyard grass [25] = experiment: Test Example 4: weedkilling efficacy by foliar treatment; F: barnyard grass
Description: (§5) Testing of Weedkilling Efficacy by Foliar Treatment
(§6) Sterilized diluvial soil was introduced into 21 cm long, 13 cm wide, 7 cm deep plastic boxes, and seeds of crabgrass, green foxtail, barnyard grass, wild oat, black-grass, Italian ryegrass, common wind-grass, Indian mallow, redroot pigweed, fig-leafed goosefoot, chickweed, catchweed, birds-eye speedwell, corn, soybean, rice, wheat, beet and rapeseed were each spot-sown, and covered with about 1.5 cm of soil, then the plants were grown in a greenhouse at 25 to 30° C.
(§7) After they had grown for 14 days, emulsions of compounds of the present invention prepared according to compounding example 2 were diluted with water to give the specified dosages, and applied uniformly onto the stem and leaf parts with a small sprayer. 3 weeks after the pesticide treatment the effect on each type of plant was investigated on the basis of the assessment criteria of test example 1.
(§8) A: barnyard grass, B: bulrush, C: oval-leafed pondweed, D: crabgrass, E: green foxtail, F: barnyard grass, G: wild oat, H: black-grass, I: Italian ryegrass, J: common wind-grass, K: Indian mallow, L: redroot pigweed, M: fig-leafed goosefoot, N: chickweed, O: catchweed, p: birds-eye speedwell, a: transplanted rice, b: directly sown rice, c: corn, d: soybean, e: wheat, f: beet, g: rapeseed
(§9) Further, pesticide dosage (g/ha) indicates the concentration regulated such that treatment was with only the stated number of grams (g), when calculated per hectare (ha).

wild oat [26] = experiment: Test Example 4: weedkilling efficacy by foliar treatment; G: wild oat
Method in brief: as §4

black-grass [27] = experiment: Test Example 4: weedkilling efficacy by foliar treatment; H: black-grass
Method in brief: as §4

Italian ryegrass [28] = experiment: Test Example 4: weedkilling efficacy by foliar treatment; I: Italian ryegrass
Method in brief: as §4

common wind-grass [29] = experiment: Test Example 4: weedkilling efficacy by foliar treatment; J: common wind-grass
Description: as §5, §6, §7, §8, §9

Indian mallow [30] = experiment: Test Example 4: weedkilling efficacy by foliar treatment; K: Indian mallow
Method in brief: as §4

redroot pigweed [31] = experiment: Test Example 4: weedkilling efficacy by foliar treatment; L: redroot pigweed
Method in brief: as §4

fig-leafed goosefoot [32] = experiment: Test Example 4: weedkilling efficacy by foliar treatment; M: fig-leafed goosefoot
Method in brief: as §4

chickweed [33] = experiment: Test Example 4: weedkilling efficacy by foliar treatment; N: chickweed
Method in brief: as §4

catchweed = experiment: Test Example 4: weedkilling efficacy by foliar treatment; O: catchweed
Method in brief: as §4

directly sown rice [34] = experiment: Test Example 4: foliar treatment, effect on crop; b: directly sown rice
Method in brief: as §4

corn [35] = experiment: Test Example 4: foliar treatment, effect on crop; c: corn
Method in brief: as §4

soybean [36] = experiment: Test Example 4: foliar treatment, effect on crop; d: soybean
Method in brief: as §4

wheat [37] = experiment: Test Example 4: foliar treatment, effect on crop; e: wheat
Method in brief: as §4

beet = experiment: Test Example 4: foliar treatment, effect on crop; f: beet
Method in brief: as §4

rapeseed [38] = experiment: Test Example 4: foliar treatment, effect on crop; g: rapeseed
Description: as §5, §6, §7, §8, §9

CC1=C(c2cccnc2F)C(=O)N(C(C)(C)C(=O)Nc2cc(C(F)(F)F)cc(Cl)n2)CO1 [B-2-16]
A (barnyard grass) weedkilling efficacy grade (barnyard grass [1]): 5 (weed kill ratio 90% or more, (practically complete withering))
B (bulrush) weedkilling efficacy grade (bulrush [2]): 5 (weed kill ratio 90% or more, (practically complete withering))
C (oval-leafed pondweed) weedkilling efficacy grade (oval-leafed pondweed [3]): 5 (weed kill ratio 90% or more, (practically complete withering))
a (transplanted rice) effect on crop grade (transplanted rice): 4 (weed kill ratio 70% or more, less than 90%)
A (barnyard grass) weedkilling efficacy grade (barnyard grass [4]): 5 (weed kill ratio 90% or more, (practically complete withering))
B (bulrush) weedkilling efficacy grade (bulrush [5]): 5 (weed kill ratio 90% or more, (practically complete withering))
C (oval-leafed pondweed) weedkilling efficacy grade (oval-leafed pondweed [6]): 5 (weed kill ratio 90% or more, (practically complete withering))
D (crabgrass) weedkilling efficacy grade (crabgrass [7]): 5 (weed kill ratio 90% or more, (practically complete withering))
E (green foxtail) weedkilling efficacy grade (green foxtail [8]): 5 (weed kill ratio 90% or more, (practically complete withering))
F (barnyard grass) weedkilling efficacy grade (barnyard grass [9]): 5 (weed kill ratio 90% or more, (practically complete withering))
G (wild oat) weedkilling efficacy grade (wild oat [10]): 5 (weed kill ratio 90% or more, (practically complete withering))
H (black-grass) weedkilling efficacy grade (black-grass [11]): 5 (weed kill ratio 90% or more, (practically complete withering))
I (Italian ryegrass) weedkilling efficacy grade (Italian ryegrass [12]): 5 (weed kill ratio 90% or more, (practically complete withering))
J (common wind-grass) weedkilling efficacy grade (common wind-grass [13]): 5 (weed kill ratio 90% or more, (practically complete withering))
K (Indian mallow) weedkilling efficacy grade (Indian mallow [14]): 2 (weed kill ratio 20% or more, less than 40%)
L (redroot pigweed) weedkilling efficacy grade (redroot pigweed [15]): 0 (weed kill ratio 5% or less (practically no effect))
M (fig-leafed goosefoot) weedkilling efficacy grade (fig-leafed goosefoot [16]): 4 (weed kill ratio 70% or more, less than 90%)
N (chickweed) weedkilling efficacy grade (chickweed [17]): 4 (weed kill ratio 70% or more, less than 90%)
b (directly sown rice) effect on crop grade (directly sown rice [18]): 5 (weed kill ratio 90% or more, (practically complete withering))
c (corn) effect on crop grade (corn [19]): 1 (weed kill ratio 5% or more, less than 20%)
d (soybean) effect on crop grade (soybean [20]): 1 (weed kill ratio 5% or more, less than 20%)
e (wheat) effect on crop grade (wheat [21]): 1 (weed kill ratio 5% or more, less than 20%)
g (rapeseed) effect on crop grade (rapeseed [22]): 3 (weed kill ratio 40% or more, less than 70%)
D (crabgrass) weedkilling efficacy grade (crabgrass [23]): 5 (weed kill ratio 90% or more, (practically complete withering))
E (green foxtail) weedkilling efficacy grade (green foxtail [24]): 5 (weed kill ratio 90% or more, (practically complete withering))
F (barnyard grass) weedkilling efficacy grade (barnyard grass [25]): 5 (weed kill ratio 90% or more, (practically complete withering))
G (wild oat) weedkilling efficacy grade (wild oat [26]): 5 (weed kill ratio 90% or more, (practically complete withering))
H (black-grass) weedkilling efficacy grade (black-grass [27]): 5 (weed kill ratio 90% or more, (practically complete withering))
I (Italian ryegrass) weedkilling efficacy grade (Italian ryegrass [28]): 5 (weed kill ratio 90% or more, (practically complete withering))
J (common wind-grass) weedkilling efficacy grade (common wind-grass [29]): 5 (weed kill ratio 90% or more, (practically complete withering))
K (Indian mallow) weedkilling efficacy grade (Indian mallow [30]): 5 (weed kill ratio 90% or more, (practically complete withering))
L (redroot pigweed) weedkilling efficacy grade (redroot pigweed [31]): 4 (weed kill ratio 70% or more, less than 90%)
M (fig-leafed goosefoot) weedkilling efficacy grade (fig-leafed goosefoot [32]): 5 (weed kill ratio 90% or more, (practically complete withering))
N (chickweed) weedkilling efficacy grade (chickweed [33]): 4 (weed kill ratio 70% or more, less than 90%)
O (catchweed) weedkilling efficacy grade (catchweed): 4 (weed kill ratio 70% or more, less than 90%)
b (directly sown rice) effect on crop grade (directly sown rice [34]): 5 (weed kill ratio 90% or more, (practically complete withering))
c (corn) effect on crop grade (corn [35]): 4 (weed kill ratio 70% or more, less than 90%)
d (soybean) effect on crop grade (soybean [36]): 4 (weed kill ratio 70% or more, less than 90%)
e (wheat) effect on crop grade (wheat [37]): 3 (weed kill ratio 40% or more, less than 70%)
f (beet) effect on crop grade (beet): 4 (weed kill ratio 70% or more, less than 90%)
g (rapeseed) effect on crop grade (rapeseed [38]): 4 (weed kill ratio 70% or more, less than 90%)
